Data set [1] deals with intestinal resorption of cholesterol. As to the kind of experiment: Inhibition of intestinal resorption of [26-^14 C]-cholesterol (CHORES) in squirrel monkeys. The format is in vivo. The note with it: Primates, po, 60 h, 100 μmol/kg p.o., percent of control values determined prior to medication (pre-period), feces collected 2.5 days. The source says: Squirrel monkeys are orally administered the substances to be investigated together with a test feed containing a protein, starch, triolein and [26-^14 C]-cholesterol. Thereafter, the feces is collected for 2.5 days. The difference between the administered and the collected radioactive cholesterol determined in the feces is taken as the measurement of resorbed cholesterol. The cholesterol resorption (CHORES) is expressed in percentages of the control values determined prior to the medication.
(§1) The results which have been obtained with some representative products in accordance with the invention are reproduced in Table I. For each of the compounds indicated in Table I the cholesterol resorption, determined at a dosage of 100 μmol/kg p.o., is given in percentages of the control values determined prior to the medication (pre-period). Moreover, the Table contains data concerning the acute toxicity of the compounds investigated (LD50 in mg/kg in the case of single oral or intravenous administration to mice).

Data set [2] is described as follows: Acute toxicity, single oral or intravenous administration to mice. The note with it: mouse, in vivo.
From the text: as §1

The mark [3] stands for this setting: i.v., single intravenous administration to mice, read-out: LD50 i.v.
The mark [4] stands for this setting: p.o., single oral administration to mice, read-out: LD50 p.o.

The results in this text go back to US5215972A, “Steroids” (Hoffmann-La Roche Inc., priority 1989, dated 1993).

Where a name gives a salt, the structure may show the parent alone. Read-outs that look alike come from different tables or passages of the source.

As a reminder, the LD50 is the dose expected to kill half of the subjects tested. Molecule `CC[C@H](CC[C@@H](C)[C@H]1CC[C@H]2[C@@H]3CC[C@H]4C[C@@H](OC(=O)OCCOP(=O)([O-])OCC[N+](C)(C)C)CC[C@]4(C)[C@H]3CC[C@]12C)C(C)C` [Example 2a, O-[[2-[[(5α-stigmastan-3β-yloxy)carbonyl]oxy]ethoxy]hydroxyphosphinyl]choline hydroxide internal salt] registered a response vs control in vivo at 100 µmol/kg in data set [1] of 38%. For the same molecule, the median lethal dose (LD50) was 250 mg/kg in data set [2] (setting [3]) and 4000 mg/kg in data set [2] (setting [4]).

For the molecule `CC[C@H](CC[C@@H](C)[C@H]1CC[C@H]2[C@@H]3CC[C@H]4C[C@@H](OC(=O)CCCOP(=O)([O-])OCC[N+](C)(C)C)CC[C@]4(C)[C@H]3CC[C@]12C)C(C)C` [Example 2k, O-[hydroxy-[3-[(3β-stigmastanyloxy)carbonyl]propoxy]phosphinyl]choline hydroxide internal salt], the response vs control in vivo at 100 µmol/kg in data set [1] came to 39%. The LD50 was found to be 250 mg/kg in data set [2] (setting [3]) and 4000 mg/kg in data set [2] (setting [4]).

The molecule `CC(C)CCC[C@@H](C)[C@H]1CC[C@H]2[C@@H]3CC=C4C[C@@H](OCCOP(=O)([O-])OCC[N+](C)(C)C)CC[C@]4(C)[C@H]3CC[C@]12C` [Example 2q, O-[[2-(cholest-5-en-3β-yloxy)ethoxy]hydroxyphosphinyl]choline hydroxide internal salt] showed a response vs control in vivo at 100 µmol/kg in data set [1] of 16%. The figures for the median lethal dose (LD50) in data set [2] (setting [3]) and in data set [2] (setting [4]) were 250 mg/kg and 4000 mg/kg, respectively.

In data set [1], `CC[C@H](/C=C/[C@@H](C)[C@H]1CC[C@H]2[C@@H]3CC=C4C[C@@H](OCCOP(=O)([O-])OCC[N+](C)(C)C)CC[C@]4(C)[C@H]3CC[C@]12C)C(C)C` [Example 2r, O-[hydroxy-[2-(stigmasta-5,22-dien-3β-yloxy)ethoxy]phosphinyl]cholinehydroxide internal salt] came in with a response vs control in vivo at 100 µmol/kg of 37%. The figures for the LD50 in data set [2] (setting [3]) and in data set [2] (setting [4]) were 500 mg/kg and 4000 mg/kg, respectively.

In data set [1], `CC[C@H](CC[C@@H](C)[C@H]1CC[C@H]2[C@@H]3CC[C@H]4C[C@@H](OCCOCCOP(=O)([O-])OCC[N+](C)(C)C)CC[C@]4(C)[C@H]3CC[C@]12C)C(C)C` [Example 4a, O-[hydroxy-[2-[2-(3β-stigmastanyloxy)ethoxy]ethoxy]phosphinyl]cholinehydroxide internal salt] returned a response vs control in vivo at 100 µmol/kg of 30%.

In data set [1], `CC[C@H](CC[C@@H](C)[C@H]1CC[C@H]2[C@@H]3CC[C@H]4C[C@@H](OC(=O)NCCOP(=O)([O-])OCC[N+](C)(C)C)CC[C@]4(C)[C@H]3CC[C@]12C)C(C)C` [Example 5, O-[hydroxy-[2-[1-(5α-stigmastan-3β-yloxy)formamido]ethoxy]phosphinyl]choline hydroxide internal salt] registered a response vs control in vivo at 100 µmol/kg of 40%.

`CC[C@H](CC[C@@H](C)[C@H]1CC[C@H]2[C@@H]3CC[C@H]4C[C@@H](OC(=O)NCCOP(=O)([O-])OCC[n+]5ccccc5)CC[C@]4(C)[C@H]3CC[C@]12C)C(C)C` [Example 6, 1-[2-[[hydroxy-[2-[1-(5α-stigmastan-3β-yloxy)-formamido]ethoxy]phosphinyl]oxy]ethyl]pyridinum hydroxide internal salt] yielded a response vs control in vivo at 100 µmol/kg in data set [1] of 31%. For the same molecule, the LD50 in data set [2] (setting [4]) amounted to 4000 mg/kg.

`CC[C@H](/C=C/[C@@H](C)[C@H]1CC[C@H]2[C@@H]3CC=C4C[C@@H](OC(=O)NCCOP(=O)([O-])OCC[N+](C)(C)C)CC[C@]4(C)[C@H]3CC[C@]12C)C(C)C` [Example 7a, O-[hydroxy-[2-[1-[(E)-stigmasta-5,22-dien-3β-yloxy]formamido]ethoxy]phosphinyl]choline hydroxide internal salt] displayed a response vs control in vivo at 100 µmol/kg in data set [1] of 35%.

As for `CC[C@H](CC[C@@H](C)[C@H]1CC[C@H]2[C@@H]3CC=C4C[C@@H](OC(=O)OCCOP(=O)([O-])OCC[N+](C)(C)C)CC[C@]4(C)[C@H]3CC[C@]12C)C(C)C` [Example 16, O-[hydroxy-[2-[[(stigmast-5-en-3β-yloxy)carbonyl]oxy]ethoxy]-phosphinyl]choline hydroxide internal salt], in data set [1], the response vs control in vivo at 100 µmol/kg turned out to be 40%.
